From US10441590B2, “Methods for treating pulmonary hypertension” (Reviva Pharmaceuticals, Inc., priority 2015, dated 2019)
Where a name gives a salt, the structure may show the parent alone. Read-outs that look alike come from different tables or passages of the source.

Assays:
Human recombinant 5-HT1A = Human recombinant 5-HT1A (Homo sapiens (Human), UniProt P08908); assay: Serotonin 5HT1A radioligand binding assay
[1] = target: Human Cortex or Human recombinant 5-HT2A (Homo sapiens (Human), UniProt P28223); assay: Serotonin 5HT2A radioligand binding assay
Human recombinant D2S = Human recombinant D2S (Homo sapiens (Human), UniProt P14416); assay: Dopamine D2S radioligand binding assay
[2] = test system: Sugen-Hypoxia (SuHx) induced pulmonary arterial hypertension (PAH) in rats; assay: Sugen-hypoxia (SuHx) induced pulmonary arterial hypertension rat model; format: in vivo; settings: for Body Weight gain / Diastolic pulmonary pressure / Lung weight / Mean pulmonary pressure / Oxygen saturation / Respiratory resistance / Right systolic ventricular pressure / Systolic pulmonary pressure: SuHx rat, Day 14 to Day 34, Day 35
Source text: The assay was designed to measure the pulmonary arterial blood pressures in anaesthetized rats with PAH induced by a single subcutaneous dose of Sugen combined with three weeks in hypoxia. Combined with a macroscopic and morphometric histological examination of the tissues harvested from the animals, the results of the provide a quantitative measurement of the progression of the disease on the systemic arterial blood pressure, pulmonary arterial blood pressure, as well as wet organ weight and vascular remodeling in rats with SuHx-induced PAH treated with test article, vehicle, or reference compound.
Male Wistar-Kyoto rats (Charles River Laboratories) weighing between 200 and 250 grams (approximately 10-12 week-old) were randomized across experimental groups according to their body weight, with the aim of scheduling one rat per treatment group for each day of terminal surgery (when possible). […] Rats from Groups 2 to 4 (see Table 3) received a single subcutaneous injection of sugen (20 mg/kg) in DMSO on Day 0 and returned to their cages. Rats from Group 1 received one subcutaneous injection of DMSO (vehicle for sugen) on Day 0 and returned to their respective cages. Groups 2-4 were placed in cages for which the controlled air was adjusted to receive a FiO2 equivalent to 0.10 (10%) using a mixture of nitrogen and ambient air controlled by the ventilated cage system. They were kept under these hypoxic conditions for 21 days. While in hypoxia, cages were cleaned and changed every 48 hours, exposing the animals to ambient oxygen levels for less than 5 minutes per cleaning session. The animals were then exposed to ambient oxygen levels from Day 22 to Day 35. Group 1 animals remained in cages exposed to ambient oxygen levels for 35 days. The animals were observed on a daily basis for any changes in their behavior and general health status. […] Food and water were given ad libitum. Daily observation of the behavior and general health status of the animals was done. Weekly blood draws and body weights were taken. On the day of surgery, the rats were anaesthetized, instrumented and hemodynamic parameters (systemic arterial blood pressure, right ventricular blood pressure, pulmonary arterial blood pressure, oxygen saturation, respiratory resistance, ventilatory pressure, respiration rate and heart rate) were recorded continuously for 5 minutes or until loss of quality in the pulmonary arterial pressure signal, whichever came first. The recordings included moving the pressure transducer from the right ventricular cavity to the pulmonary artery and back, observing the very clear transitions in diastolic pressures and general pressure waveforms as the catheter entered the artery, and was withdrawn into the ventricle. The rats were then exsanguinated and the pulmonary circulation was flushed with 0.9% NaCl. The trachea, lungs and heart were removed as a whole from the thoracic cavity. The right and left lobes of the lung were weighed before being perfused with 10% NBF and immersed in 10% formalin. The lungs were stored in 10% formalin at room temperature. The heart was excised to measure the wet weights of the right ventricle (RV) and left ventricle including the septum (LV-S) as part of the Fulton index calculation.
Mean arterial blood pressure values and Fulton's index were calculated using the following formula as described above in Example 2. The study results are described in Table 4.

Human recombinant 5-HT2B = Human recombinant 5-HT2B (Homo sapiens (Human), UniProt P41595); assay: Serotonin 5HT2B radioligand binding assay
Human recombinant 5-HT6 = Human recombinant 5-HT6 (Homo sapiens (Human), UniProt P50406); assay: Serotonin 5HT6 radioligand binding assay
Human recombinant 5-HT7 = Human recombinant 5-HT7 (Homo sapiens (Human), UniProt P34969); assay: Serotonin 5HT7 radioligand binding assay
[3] = test system: monocrotaline-induced pulmonary arterial hypertension (PAH) in rats; assay: Monocrotaline (MCT) induced pulmonary arterial hypertension rat model; format: in vivo; settings: for Body Weight gain / Diastolic pulmonary pressure / Lung weight / Mean pulmonary pressure / Oxygen saturation / Respiratory resistance / Right systolic ventricular pressure / Systolic pulmonary pressure: MCT rat, Day 0 to Day 27, Day 28
Source text: The purpose of this study was to assess the effect of the test articles on the monocrotaline-induced pulmonary arterial hypertension (PAH) in rats. The assay was designed to measure the pulmonary and systemic arterial blood pressures in anaesthetized rats with PAH induced by a single subcutaneous dose of monocrotaline. The results of the study are a quantitative measurement of the progression of the disease and its effects on the pulmonary arterial blood pressure (PAP), as well as wet organ weight in rats with induced PAH with and without treatment with test article or reference compound. Furthermore, a detailed morphometric and clinical investigation of the histology of the pulmonary vasculature was performed to correlate vascular remodeling with the functional impact of the onset of the PAH.
Male Wistar-Kyoto rats (Charles River Laboratories) weighing between 200 and 250 grams (approximately 10-12 week-old) were randomized across experimental groups, according to their body weight, with the aim of scheduling one animal per treatment group for each day of terminal surgery (when possible). […] Rats from treatment groups 2 to 4 received one subcutaneous injection of monocrotaline (MCT) solution (60 mg/kg) in DMSO on Day 0 and were returned to their cages. Rats from control group 1 received one subcutaneous injection of DMSO (vehicle for monocrotaline) on Day 0 and were returned to their respective cages. […] Food and water were given ad libitum. Daily observations of the behavior and general health status of the animals were done. Weekly blood draw, body weight and body temperature were taken.
On the day of surgery, the rats were anaesthetized, instrumented and hemodynamic parameters (systemic arterial blood pressure, right ventricular blood pressure, pulmonary arterial blood pressure, oxygen saturation, respiratory resistance, ventilatory pressure, respiration rate and heart rate) were recorded continuously for 5 minutes or until loss of quality in the pulmonary arterial pressure signal, whichever came first. The recordings included moving the pressure transducer from the right ventricular cavity to the pulmonary artery and back, observing the very clear transitions in diastolic pressures and general pressure waveforms as the catheter entered the artery, and was withdrawn into the ventricle. The rats were then exsanguinated and the pulmonary circulation was flushed with 0.9% NaCl. The trachea, lungs and heart were removed as a whole from the thoracic cavity. The right and left lobes of the lung were weighed before being perfused with 10% NBF and immersed in 10% formalin. The lungs were stored in 10% formalin at room temperature. The heart was excised to measure the wet weights of the right ventricle (RV) and left ventricle including the septum (LV-S) as part of the Fulton index calculation. Arterial blood pressure was recorded continuously throughout the experiment via an intra-arterial fluid-filled catheter (AD Instruments, Colorado Springs, Colo., USA). Diastolic and systolic pressures values were measured in mmHg using cursors readings in the Clampfit 10.2.0.14. Mean arterial blood pressure values were calculated using the following formula:
[formula] Values are presented as means±SEM (standard error of the means). Repeat unpaired Student's t-tests were performed in Microsoft Excel 2007 on all experimental conditions, comparing treatment groups to either the control, healthy animals, or the negative control animals (monocrotaline only). Differences were considered significant when p≤0.05. The study results are described in Table 2.

Chain of Human Cortex or Human recombinant 5-HT2A (P28223 whole entry): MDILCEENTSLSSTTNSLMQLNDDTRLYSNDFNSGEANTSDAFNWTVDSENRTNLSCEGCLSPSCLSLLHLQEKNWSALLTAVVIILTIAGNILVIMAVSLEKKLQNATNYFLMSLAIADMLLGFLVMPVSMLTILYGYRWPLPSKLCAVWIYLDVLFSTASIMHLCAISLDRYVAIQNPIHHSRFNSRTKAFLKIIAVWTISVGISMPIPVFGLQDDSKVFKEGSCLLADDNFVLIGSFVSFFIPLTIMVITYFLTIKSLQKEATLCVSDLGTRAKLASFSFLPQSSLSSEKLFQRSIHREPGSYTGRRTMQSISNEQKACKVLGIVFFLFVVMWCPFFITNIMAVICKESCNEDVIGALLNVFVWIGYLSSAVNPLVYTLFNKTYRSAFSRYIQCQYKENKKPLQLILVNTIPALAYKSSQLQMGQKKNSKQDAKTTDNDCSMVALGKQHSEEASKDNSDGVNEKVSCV
Chain of Human recombinant 5-HT7 (P34969 whole entry): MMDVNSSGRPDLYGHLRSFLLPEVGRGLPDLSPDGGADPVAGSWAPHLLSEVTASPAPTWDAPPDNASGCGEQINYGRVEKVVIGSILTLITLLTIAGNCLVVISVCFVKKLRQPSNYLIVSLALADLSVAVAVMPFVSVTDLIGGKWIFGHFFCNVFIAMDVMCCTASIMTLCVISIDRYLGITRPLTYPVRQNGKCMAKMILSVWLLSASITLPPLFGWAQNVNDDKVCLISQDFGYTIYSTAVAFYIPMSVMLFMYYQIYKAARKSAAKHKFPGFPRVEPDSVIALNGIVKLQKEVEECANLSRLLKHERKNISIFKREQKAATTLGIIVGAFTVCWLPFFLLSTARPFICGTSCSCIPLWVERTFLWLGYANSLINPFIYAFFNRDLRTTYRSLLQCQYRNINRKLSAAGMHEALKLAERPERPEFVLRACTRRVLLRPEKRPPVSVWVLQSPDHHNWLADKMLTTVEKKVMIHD
Chain of Human recombinant 5-HT6 (P50406 whole entry): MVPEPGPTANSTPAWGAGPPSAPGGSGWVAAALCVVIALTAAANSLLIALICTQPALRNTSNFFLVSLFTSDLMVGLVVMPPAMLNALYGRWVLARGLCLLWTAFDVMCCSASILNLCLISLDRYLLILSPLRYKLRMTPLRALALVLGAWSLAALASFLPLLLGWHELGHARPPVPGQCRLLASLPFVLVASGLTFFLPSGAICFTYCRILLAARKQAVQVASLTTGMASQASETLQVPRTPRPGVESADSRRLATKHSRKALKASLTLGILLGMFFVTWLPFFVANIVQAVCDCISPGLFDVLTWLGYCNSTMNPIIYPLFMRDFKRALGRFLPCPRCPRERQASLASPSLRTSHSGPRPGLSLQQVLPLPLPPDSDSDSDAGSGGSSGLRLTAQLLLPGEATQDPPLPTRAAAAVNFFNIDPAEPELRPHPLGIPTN
Chain of Human recombinant D2S (P14416 other isoform, or with tags, fused parts or gaps): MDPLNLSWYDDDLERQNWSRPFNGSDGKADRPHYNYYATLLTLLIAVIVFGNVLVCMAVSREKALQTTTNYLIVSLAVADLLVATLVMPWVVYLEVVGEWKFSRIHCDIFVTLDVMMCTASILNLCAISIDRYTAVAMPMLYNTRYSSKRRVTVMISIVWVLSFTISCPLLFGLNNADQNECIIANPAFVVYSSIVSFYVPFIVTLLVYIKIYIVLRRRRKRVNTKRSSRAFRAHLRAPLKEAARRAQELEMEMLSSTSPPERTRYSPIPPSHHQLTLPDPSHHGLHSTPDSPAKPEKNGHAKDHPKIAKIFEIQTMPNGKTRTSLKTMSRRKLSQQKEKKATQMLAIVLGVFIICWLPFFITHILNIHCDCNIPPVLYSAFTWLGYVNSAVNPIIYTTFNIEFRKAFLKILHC
Chain of Human recombinant 5-HT2B (P41595 whole entry): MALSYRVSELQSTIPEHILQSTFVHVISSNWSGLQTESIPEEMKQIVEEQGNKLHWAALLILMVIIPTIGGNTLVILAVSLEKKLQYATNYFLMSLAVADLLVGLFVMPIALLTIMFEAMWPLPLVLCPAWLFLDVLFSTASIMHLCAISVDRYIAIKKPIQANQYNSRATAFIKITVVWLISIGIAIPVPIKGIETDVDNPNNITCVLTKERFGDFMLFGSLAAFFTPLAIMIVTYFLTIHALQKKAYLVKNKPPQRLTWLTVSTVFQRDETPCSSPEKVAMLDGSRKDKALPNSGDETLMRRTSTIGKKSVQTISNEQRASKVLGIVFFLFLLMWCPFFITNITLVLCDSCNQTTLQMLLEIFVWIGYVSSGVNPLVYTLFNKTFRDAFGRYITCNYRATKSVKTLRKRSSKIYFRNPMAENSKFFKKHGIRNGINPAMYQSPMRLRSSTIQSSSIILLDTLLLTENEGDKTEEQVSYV

## 6-(4-(4-(2-methoxyphenyl)piperazin-1-yl)butoxy)-2H-benzo[b][1,4]oxazin-3(-4H)-one hydrochloride [Compound A]
Human recombinant 5-HT1A
  Ki: 0.65 nM
[1]
  Ki: 118 nM
Human recombinant D2S
  Ki: 0.3 nM

## O=C1COc2ccc(OCCCCN3CCN(c4cccc(Cl)c4Cl)CC3)cc2N1 [Compound B, 6-(4-(4-(2,3-dichlorophenyl)piperazin-1-yl)butoxy)-2H-benzo[b][1,4]oxazin-3(4H)-one hydrochloride]
[2]; SuHx induced PAH rat model, summary statement
  efficacy for PAH: demonstrated efficacy for PAH
[2]; 10 mg/kg bid oral gavage
  Body Weight gain: 66.7 g
  Diastolic pulmonary pressure: 15.3 mmHg
  Lung weight: 0.65%
  Mean pulmonary pressure: 20.9 mmHg
  Oxygen saturation: 95.9%
  Respiratory resistance: 12.4
  Right systolic ventricular pressure: 32.8 mmHg
  Systolic pulmonary pressure: 32.2 mmHg
[2]; 20 mg/kg bid oral gavage
  Body Weight gain: 50.8 g
  Diastolic pulmonary pressure: 14.7 mmHg
  Lung weight: 0.62%
  Mean pulmonary pressure: 20.4 mmHg
  Oxygen saturation: 96.9%
  Respiratory resistance: 11.1
  Right systolic ventricular pressure: 34.2 mmHg
  Systolic pulmonary pressure: 32.0 mmHg
[2]; SuHx, summary statement
  severity of PAH (right ventricular hypertrophy, pulmonary artery pressure, respiratory resistance): decreasing the severity of PAH
[1]; hydrochloride
  Ki: 2.50 nM
[1]; listed as compound B, hydrochloride
  Ki: 2.5 nM
Human recombinant 5-HT2B
  Ki: 0.19 nM
Human recombinant 5-HT6
  Ki: 51 nM
Human recombinant 5-HT7
  Ki: 2.7 nM
[3]; MCT induced PAH rat model, summary statement
  efficacy for PAH: demonstrated efficacy for PAH
[3]; 3 mg/kg bid oral gavage
  Body Weight gain: 22.9 g
  Diastolic pulmonary pressure: 19.2 mmHg
  Lung weight: 0.86%
  Mean pulmonary pressure: 32.0 mmHg
  Oxygen saturation: 93.5%
  Respiratory resistance: 15.7
  Right systolic ventricular pressure: 58.4 mmHg
  Systolic pulmonary pressure: 57.7 mmHg
[3]; 10 mg/kg bid oral gavage
  Body Weight gain: 23.1 g
  Diastolic pulmonary pressure: 14.7 mmHg
  Lung weight: 0.86%
  Mean pulmonary pressure: 24.1 mmHg
  Oxygen saturation: 96.5%
  Respiratory resistance: 10.7
  Right systolic ventricular pressure: 43.1 mmHg
  Systolic pulmonary pressure: 43.0 mmHg
[3]; MCT, summary statement
  severity of PAH (right ventricular hypertrophy, pulmonary artery pressure, respiratory resistance): decreasing the severity of PAH
